Measurements taken from patent US4476120A, “Thiolic derivatives of erythromycin having therapeutic activity, and pharmaceutical compositions containing them” (Sigma Tau Indistrie Farmaceutiche Riunites, p.A, priority 1982, dated 1984).
Converted amounts (≈) assume the structure as drawn.

How the values were obtained:
[1] = C.A. 93 38279f; cited from earlier work
D. pneumoniae SS 23 [2] = assay: Experimental infection induced by D. pneumoniae SS 23; type: in vivo, Swiss white mice; details: Streptococcus pneumoniae, SS23, in Mus musculus, po, 168 h, os; D. pneumoniae SS 23; mg/kg of erythromycin; survival after 7 days; read-out: ED50 (reliability limits)
Description: (§1) Swiss white mice of 20 g body weight were used, infected by parenteral administration of lethal amounts of pathogenic […] of Staph. aureus SS 07 and D. pneumoniae SS 23.
(§2) The antibiotics were administered at the time of injecting the infecting germ and 6 and 24 hours later. On the basis of the survival after 7 days, the ED50 values were determined, as reported in the following table II and III, wherein the reliability limits are indicated in brackets.

Br. abortus SS 7 = type: cell-based; details: Brain Heart Infusion, estolate and RV11-RV15 previously hydrolized, unit assumed
[3] = Hematic levels in the healthy volunteer; type: in vivo, healthy volunteers; details: 500 mg of erythromycin, average; for Hematic levels in the healthy volunteer: oral
Source text: For the dosing, the microbiological method using a B. subtilis strain was adopted.

H. pertussis SS 03 = type: cell-based; details: Brain Heart Infusion, estolate and RV11-RV15 previously hydrolized, unit assumed
C. diphtheriae SS 19 = type: cell-based; details: Brain Heart Infusion, estolate and RV11-RV15 previously hydrolized, unit assumed
Cl. tetani SS 17 = type: cell-based; details: Brain Heart Infusion, estolate and RV11-RV15 previously hydrolized, unit assumed
C. albicans SS 04 = type: cell-based; details: Brain Heart Infusion, estolate and RV11-RV15 previously hydrolized, unit assumed
Kl. aerogenes SS 71 = type: cell-based; details: Brain Heart Infusion, estolate and RV11-RV15 previously hydrolized, unit assumed
Staph. albus SS 04 = type: cell-based; details: Brain Heart Infusion, estolate and RV11-RV15 previously hydrolized, unit assumed
B. cereus ATCC 11778 = type: cell-based; details: Brain Heart Infusion, estolate and RV11-RV15 previously hydrolized, unit assumed
Citrobacter SS 05 = type: cell-based; details: Brain Heart Infusion, estolate and RV11-RV15 previously hydrolized, unit assumed
[4] = tested on: Strept. haemolyticus SS 17; type: cell-based; details: Brain Heart Infusion, estolate and RV11-RV15 previously hydrolized, unit assumed
[5] = in vivo, po, 100 mg/kg, 6 h
S. infantis SS 08 = type: cell-based; details: Brain Heart Infusion, estolate and RV11-RV15 previously hydrolized, unit assumed
N. gonorreae SS 27 = type: cell-based; details: Brain Heart Infusion, estolate and RV11-RV15 previously hydrolized, unit assumed
S. lutea ATCC 9341 = type: cell-based; details: Brain Heart Infusion, estolate and RV11-RV15 previously hydrolized, unit assumed
Sr. marcescens SS 03 = type: cell-based; details: Brain Heart Infusion, estolate and RV11-RV15 previously hydrolized, unit assumed
Staph. albus SS 03 = type: cell-based; details: Brain Heart Infusion, estolate and RV11-RV15 previously hydrolized, unit assumed
Staph. aureus SS 09 = type: cell-based; details: Brain Heart Infusion, estolate and RV11-RV15 previously hydrolized, unit assumed
S. heidelberg SS 18 = type: cell-based; details: Brain Heart Infusion, estolate and RV11-RV15 previously hydrolized, unit assumed
Staph. aureus SS 07 = assay: Experimental infection induced by Staph. aureus SS 07; type: in vivo, Swiss white mice; details: Staphylococcus aureus, SS07, in Mus musculus, po, 168 h, os; Staph. aureus SS 07; mg/kg of erythromycin; survival after 7 days; read-out: ED50 (reliability limits)
Description: as §1, §2

[6] = tested on: Strept. haemolyticus SS 18; type: cell-based; details: Brain Heart Infusion, estolate and RV11-RV15 previously hydrolized, unit assumed
B. subtilis ATCC 6633 = type: cell-based; details: Brain Heart Infusion, estolate and RV11-RV15 previously hydrolized, unit assumed
in vivo = details: rat, po, 100 mg/kg, Hematic levels in the rat
N. meningitidis SS 04 = type: cell-based; details: Brain Heart Infusion, estolate and RV11-RV15 previously hydrolized, unit assumed
Citrobacter SS 09 = type: cell-based; details: Brain Heart Infusion, estolate and RV11-RV15 previously hydrolized, unit assumed
E. coli SS 05 = type: cell-based; details: Brain Heart Infusion, estolate and RV11-RV15 previously hydrolized, unit assumed
Staph. aureus SS 08 = type: cell-based; details: Brain Heart Infusion, estolate and RV11-RV15 previously hydrolized, unit assumed
H. tubercolosis SS 03 = type: cell-based; details: Brain Heart Infusion, estolate and RV11-RV15 previously hydrolized, unit assumed
Source text: (§3) In the following table I the MIC/ml values are indicated corresponding to the lowest concentration capable of inducing a complete inhibition of the bacterial development.

Kl. pneumoniae SS 04 = type: cell-based; details: Brain Heart Infusion, estolate and RV11-RV15 previously hydrolized, unit assumed
Source text: as §3

E. coli SS 04 = type: cell-based; details: Brain Heart Infusion, estolate and RV11-RV15 previously hydrolized, unit assumed
Ps. aeruginosa SS 10 = type: cell-based; details: Brain Heart Infusion, estolate and RV11-RV15 previously hydrolized, unit assumed
B. anthranis SS 08 = type: cell-based; details: Brain Heart Infusion, estolate and RV11-RV15 previously hydrolized, unit assumed
Pr. mirabilis SS 09 = type: cell-based; details: Brain Heart Infusion, estolate and RV11-RV15 previously hydrolized, unit assumed
E. coli SS 06 = type: cell-based; details: Brain Heart Infusion, estolate and RV11-RV15 previously hydrolized, unit assumed
E. cloacae SS 07 = type: cell-based; details: Brain Heart Infusion, estolate and RV11-RV15 previously hydrolized, unit assumed
[7] = Mucolytic activity: obstruction of the bronchial tract after SO2 inhalation; type: in vivo, Sprague Dawley male rats; details: oral, 500 mg/kg; SO2, 15 days
Pr. vulgaris SS 10 = type: cell-based; details: Brain Heart Infusion, estolate and RV11-RV15 previously hydrolized, unit assumed
B. anthranis SS 09 = type: cell-based; details: B. anthranis SS 09 (14 bis); Brain Heart Infusion; estolate and RV11-RV15 previously hydrolized; unit assumed
H. influentiae SS 02 = type: cell-based; details: Brain Heart Infusion, estolate and RV11-RV15 previously hydrolized, unit assumed
B. subtilis SS 127 = type: cell-based; details: Brain Heart Infusion, estolate and RV11-RV15 previously hydrolized, unit assumed
E. coli SS 07 = type: cell-based; details: Brain Heart Infusion, estolate and RV11-RV15 previously hydrolized, unit assumed
E. aerogenes SS 011 = type: cell-based; details: Brain Heart Infusion, estolate and RV11-RV15 previously hydrolized, unit assumed
Strept. faecalis SS 19 = type: cell-based; details: Brain Heart Infusion, estolate and RV11-RV15 previously hydrolized, unit assumed
D. pneumoniae SS 23 [8] = type: cell-based; details: Brain Heart Infusion, estolate and RV11-RV15 previously hydrolized, unit assumed
Br. melitensis SS 19 = type: cell-based; details: unit assumed
[9] = Histological examination of bronchi after SO2 inhalation; type: in vivo, Sprague Dawley male rats; details: oral, 500 mg/kg

CC(=O)N[C@@H](CS)C(=O)O [acetylcysteine]
action with respect to the activity of antibiotics [1]: inhibiting action with respect to the activity of antibiotics

CCC(=O)O[C@H]1[C@H](O[C@@H]2[C@@H](C)[C@H](O[C@H]3C[C@@](C)(OC)[C@@H](O)[C@H](C)O3)[C@@H](C)C(=O)O[C@H](CC)[C@@](C)(O)[C@H](O)[C@@H](C)C(=O)[C@H](C)C[C@@]2(C)O)O[C@H](C)C[C@@H]1N(C)C [erythromycin estolate, reference compound]
ED50 (D. pneumoniae SS 23 [2]): 128 mg/kg
MIC (Br. abortus SS 7): 6 µg/mL (≈ 7.59 µM)
Hematic levels in the healthy volunteer ([3]; 0.30 hours, 18 min): 0.27 µg/mL
Hematic levels in the healthy volunteer ([3]; 1 hour, 60 min): 0.58 µg/mL
concentration at 2 h ([3]; human, blood, po, 500 mg, 2 hours): 2100 ng/mL
concentration at 3 h ([3]; human, blood, po, 500 mg, 3 hours): 1410 ng/mL
concentration at 4 h ([3]; human, blood, po, 500 mg, 4 hours): 1310 ng/mL
MIC (H. pertussis SS 03): 0.4 µg/mL (≈ 0.506 µM)
MIC (C. diphtheriae SS 19): 0.025 µg/mL (≈ 0.0316 µM)
MIC (Cl. tetani SS 17): 0.2 µg/mL (≈ 0.253 µM)
MIC (C. albicans SS 04): 200 µg/mL (≈ 253 µM)
MIC (Kl. aerogenes SS 71): 100 µg/mL (≈ 127 µM)
MIC (Staph. albus SS 04): 0.05 µg/mL (≈ 0.0633 µM)
MIC (B. cereus ATCC 11778): 0.8 µg/mL (≈ 1.01 µM)
MIC (Citrobacter SS 05): > 200 µg/mL
MIC [4]: 3 µg/mL (≈ 3.8 µM)
Hematic levels in the rat [5]: 0.04 µg/mL
MIC (S. infantis SS 08): 100 µg/mL (≈ 127 µM)
MIC (N. gonorreae SS 27): 0.8 µg/mL (≈ 1.01 µM)
MIC (S. lutea ATCC 9341): 0.01 µg/mL (≈ 0.0127 µM)
MIC (Sr. marcescens SS 03): > 200 µg/mL
MIC (Staph. albus SS 03): 0.05 µg/mL (≈ 0.0633 µM)
MIC (Staph. aureus SS 09): 0.05 µg/mL (≈ 0.0633 µM)
MIC (S. heidelberg SS 18): 100 µg/mL (≈ 127 µM)
ED50 (Staph. aureus SS 07): 2.2 mg/kg
MIC [6]: 3 µg/mL (≈ 3.8 µM)
MIC (B. subtilis ATCC 6633): 0.01 µg/mL (≈ 0.0127 µM)
concentration at 0.3 h (in vivo): 680 ng/mL
concentration at 1 h (in vivo): 1740 ng/mL
concentration at 2 h (in vivo): 2490 ng/mL
concentration at 3 h (in vivo): 1490 ng/mL
concentration at 4 h (in vivo): 610 ng/mL
concentration at 5 h (in vivo): 370 ng/mL
MIC (N. meningitidis SS 04): 1.5 µg/mL (≈ 1.9 µM)
MIC (Citrobacter SS 09): > 200 µg/mL
MIC (E. coli SS 05): 100 µg/mL (≈ 127 µM)
MIC (Staph. aureus SS 08): 0.025 µg/mL (≈ 0.0316 µM)
MIC (H. tubercolosis SS 03): 50 µg/mL (≈ 63.3 µM)
MIC (Kl. pneumoniae SS 04): 100 µg/mL (≈ 127 µM)
MIC (E. coli SS 04): 100 µg/mL (≈ 127 µM)
MIC (Ps. aeruginosa SS 10): 100 µg/mL (≈ 127 µM)
MIC (B. anthranis SS 08): 0.4 µg/mL (≈ 0.506 µM)
MIC (Pr. mirabilis SS 09): > 200 µg/mL
MIC (E. coli SS 06): 50 µg/mL (≈ 63.3 µM)
MIC (E. cloacae SS 07): > 200 µg/mL
Partial obstruction (% incidence) [7]: 20%
Total obstruction, compact plug (% incidence) [7]: 46.66%
Total obstruction, nodular mass (% incidence) [7]: 20%
Total obstruction, pimply mass (% incidence) [7]: 6.66%
MIC (Pr. vulgaris SS 10): > 200 µg/mL
MIC (B. anthranis SS 09): 0.4 µg/mL (≈ 0.506 µM)
MIC (H. influentiae SS 02): 1.5 µg/mL (≈ 1.9 µM)
MIC (B. subtilis SS 127): 0.025 µg/mL (≈ 0.0316 µM)
MIC (E. coli SS 07): 50 µg/mL (≈ 63.3 µM)
MIC (E. aerogenes SS 011): 50 µg/mL (≈ 63.3 µM)
MIC (Strept. faecalis SS 19): 0.1 µg/mL (≈ 0.127 µM)
MIC (D. pneumoniae SS 23 [8]): 0.05 µg/mL (≈ 0.0633 µM)
MIC (Br. melitensis SS 19): 3 µg/mL (≈ 3.8 µM)
bronchial epithelium reaction [9]: the bronchial epithelium reacts through a proliferation of cells, mainly cup-shaped cells
histological appearance of obstructed bronchial tract ([9]; obstructed): the bronchial obstruction is formed by abundant mucus admixed with fibrin
